Counter-ions that a name gives are not always drawn.
Row | Structure (SMILES) | melting point
1 | COC(=O)C(=O)NS(=O)(=O)c1ccc(-c2c(-c3ccccc3)noc2C)cc1 [Example 50, Methyl [[[4-(5-methyl-3-phenylisoxazol-4-yl)phenyl]sulfonyl]amino]oxoacetate] | 171.1 to 172.3 °C
2 | Cc1onc(-c2ccccc2)c1-c1ccc(S(=O)(=O)NC(=O)C(C)(C)C)cc1 [Example 21, 2,2-Dimethyl-N-[[4-(5-methyl-3-phenylisoxazol-4-yl)phenyl]sulfonyl]propanamide] | 190.5 to 191.1 °C
3 | CC(=O)NS(=O)(=O)c1ccc(-c2c(-c3ccccc3)noc2C)cc1.[K] | 279.7 to 283.7 °C
4 | CC(=O)NS(=O)(=O)c1ccc(-c2c(-c3cccc(F)c3)noc2C)cc1 (as salt: sodium) [Example 13, N-[[4-[3-(3-Fluorophenyl)-5-methylisoxazol-4-yl]phenyl]sulfonyl]acetamide] | 112 to 131 °C
5 | CCCC(=O)NS(=O)(=O)c1ccc(-n2cc(C(F)(F)F)nc2-c2cccnc2C)cc1 [Example 9, N-[[4-[2-(2-Methylpyridin-3-yl)-4-(trifluoromethyl)-1H-imidazol-1-yl]phenyl]sulfonyl]butanamide] | 250 to 252 °C
6 | CCCCC(=O)NS(=O)(=O)c1ccc(-c2c(-c3ccccc3)noc2C)cc1 [Example 26, N-[[4-(5-Methyl-3-phenylisoxazol-4-yl)phenyl]sulfonyl]pentanamide] | 134.1 to 136.5 °C
7 | CCCC(=O)NS(=O)(=O)c1ccc(-c2c(-c3ccccc3)noc2C)cc1 [Example 24, N-[[4-(5-Methyl-3-phenylisoxazol-4-yl)phenyl]sulfonyl]butanamide] | 173.2 °C
8 | CCCC(=O)NS(=O)(=O)c1ccc(-c2c(-c3ccccc3)noc2C)cc1 (as salt: sodium) [Example 25, N-[[4-(5-Methyl-3-phenylisoxazol-4-yl)phenyl]sulfonyl]butanamide, Sodium Salt] | 273.5 to 277.7 °C
9 | CC(=O)NS(=O)(=O)c1ccc(-n2cc(C(F)(F)F)nc2-c2cccnc2)cc1 [Example 1, N-[[4-[2-(3-Pyridinyl)-4-(trifluoromethyl)-1H-imidazol-1-yl]phenyl]sulfonyl]acetamide] | 244 to 246 °C
10 | CC(=O)NS(=O)(=O)c1ccc(-c2oc(C)nc2-c2ccccc2)cc1 (as salt: sodium) [Example 49, N-[[4-(2-Methyl-4-phenyloxazol-5-yl)phenyl]sulfonyl]acetamide, Sodium Salt] | 259.9 to 260 °C
11 | CC(=O)NS(=O)(=O)c1ccc(-n2nc(C(F)(F)F)cc2-c2ccc(Cl)cc2)cc1.[Na] | 269.8 to 272 °C
12 | CC(=O)NS(=O)(=O)c1ccc(-n2cc(C(F)(F)F)nc2-c2cc(C)cc(Cl)c2)cc1 [Example 11, N-[[4-[2-(3-Chloro-5-methylphenyl)-4-(trifluoromethyl)-1H-imidazol-1-yl]phenyl]sulfonyl]acetamide] | 232 to 235 °C
13 | COc1ccc2c(c1F)CSc1c(C(F)F)nn(-c3ccc(S(=O)(=O)NC(C)=O)cc3)c1-2.[Na] | > 300 °C
14 | CCOCC(=O)NS(=O)(=O)c1ccc(-c2c(-c3ccccc3)noc2C)cc1.[Na] | 207.2 to 210 °C
15 | CC(=O)NS(=O)(=O)c1ccc(-n2cc(C(F)(F)F)nc2-c2cccnc2C)cc1 [Example 5, N-[[4-[2-(2-Methylpyridin-3-yl)-4-(trifluoromethyl)-1H-imidazol-1-yl]phenyl]sulfonyl]acetamide] | 243 to 245 °C
16 | CCC(=O)NS(=O)(=O)c1ccc(-n2nc(C(F)(F)F)cc2-c2ccc(Cl)cc2)cc1 [Example 33, N-[[4-[5-(4-Chlorophenyl)-3-(trifluoromethyl)-1H-pyrazol-1-yl]phenyl]sulfonyl]propanamide] | 77.9 to 85.1 °C
17 | CC(=O)NS(=O)(=O)c1ccc(-n2cc(C(F)(F)F)nc2-c2cncc(C)c2)cc1 [Example 3, N-[[4-[2-(5-Methylpyridin-3-yl)-4-(trifluoromethyl)-1H-imidazol-1-yl]phenyl]sulfonyl]acetamide] | 268 to 270 °C
18 | CC(=O)NS(=O)(=O)c1ccc(-n2nc(C(F)(F)F)cc2-c2ccc(Cl)cc2)cc1 [Example 37, N-[[4-[5-(4-Chlorophenyl)-3-(trifluoromethyl)-1H-pyrazol-1-yl]phenyl]sulfonyl]acetamide] | 161.9 to 162.7 °C
19 | CC(=O)NS(=O)(=O)c1ccc(-c2c(-c3ccccc3)noc2COC(C)=O)cc1 [Example 73, N-[[4-[5-Acetoxymethyl-3-phenylisoxaxzol-4-yl]phenyl]sulfonyl]acetamide] | 137 to 139 °C

Second part, the compound after the results:

Row | melting point | Structure (SMILES)
20 | 158.4 to 165.4 °C | Cc1onc(-c2ccccc2)c1-c1ccc(S(=O)(=O)NC(=O)CCC(=O)O)cc1 [Example 58, 4-[[[4-(5-Methyl-3-phenylisoxazol-4-yl)phenyl]sulfonyl]amino]-4-oxobutanoic Acid]
21 | 136.9 to 141 °C | CCC(=O)NS(=O)(=O)c1ccc(-c2c(-c3ccccc3)noc2C(F)F)cc1 [Example 54, N-[[4-[5-(Difluoromethyl)-3-phenylisoxazol-4-yl]phenyl]sulfonyl]propanamide]
22 | 94 to 103 °C | CC(=O)NS(=O)(=O)c1ccc(-c2c(-c3ccccc3)noc2CO)cc1 [Example 74, N-[[4-[5-Hydroxymethyl-3-phenylisoxaxzol-4-yl]phenyl]sulfonyl]acetamide]
23 | 168 to 171 °C | Cc1onc(-c2ccccc2)c1-c1ccc(S(=O)(=O)NC(=O)OC(C)(C)C)cc1 [Example 62, 1,1-Dimethylethyl N-[[4-(5-methyl-3-phenylisoxazol-4-yl)phenyl]sulfonyl]carbamate]
24 | 216 °C (dec.) | Cc1onc(-c2ccccc2)c1-c1ccc(S(=O)(=O)NCC(=O)[O-])cc1.[Na+] [Example 80, N-[[4-(5-Methyl-3-phenylisoxazol-4-yl)phenyl]sulfonyl]glycine, Sodium Salt]
25 | 218.2 to 219.3 °C | CC(=O)NCC(=O)NS(=O)(=O)c1ccc(-c2c(-c3ccccc3)noc2C)cc1 [Example 82, 2-(Acetylamino)-N-[[4-(5-methyl-3-phenylisoxazol-4-yl)phenyl]sulfonyl]acetamide]
26 | 121 to 122 °C | CNS(=O)(=O)c1ccc(C2=C(c3ccc(F)cc3)CCC2)cc1 [Example 64, 4-[2-(4-Fluorophenyl)cyclopenten-1-yl]-N-methylbenzenesulfonamide]
27 | 154.9 to 155.9 °C | CCCC(=O)NS(=O)(=O)c1ccc(-c2c(-c3ccccc3)noc2C(F)F)cc1 [Example 56, N-[[4-[5-(Difluoromethyl)-3-phenylisoxazol-4-yl]phenyl]sulfonyl]butanamide]
28 | 174 °C | CNS(=O)(=O)c1ccc(-n2cccc2-c2ccc(F)cc2)cc1 [Example 78, 4-[2-(4-Fluorophenyl)-1H-pyrrol-1-yl]-N-methylbenzenesulfonamide]
29 | 298 °C (dec.) | CCC(=O)[N-]S(=O)(=O)c1ccc(-n2cc(C(F)(F)F)nc2-c2cccnc2C)cc1.[Na+] [Example 85, N-[[4-(2-(2-Methylpyridin-3-yl)-4-trifluoromethylimidazol-1-yl]phenyl]sulfonyl]propanamide, Sodium Salt]
30 | 111 to 122 °C | Cc1onc(-c2ccccc2)c1-c1ccc(S(=O)(=O)NC=O)cc1 [Example 60, N-[[4-(5-Methyl-3-phenylisoxazol-4-yl)phenyl]sulfonyl]formamide]

— patent US6815460B2, “Process for preparing prodrugs of benzenesulfonamide-containing cox-2 inhibitors” (Pharmacia Corporation, priority 1996, dated 2004)
